Test results taken from paper PMC9000610, “Computational Analysis and Biological Activities of Oxyresveratrol Analogues, the Putative Cyclooxygenase-2 Inhibitors” (Molecules, 2022).

Target: T1, human COX-2 (Homo sapiens, UniProt P35354)
T1 construct: purchased Cayman Chemicals USA Item no; 701080
T1 sequence (P35354 18-604): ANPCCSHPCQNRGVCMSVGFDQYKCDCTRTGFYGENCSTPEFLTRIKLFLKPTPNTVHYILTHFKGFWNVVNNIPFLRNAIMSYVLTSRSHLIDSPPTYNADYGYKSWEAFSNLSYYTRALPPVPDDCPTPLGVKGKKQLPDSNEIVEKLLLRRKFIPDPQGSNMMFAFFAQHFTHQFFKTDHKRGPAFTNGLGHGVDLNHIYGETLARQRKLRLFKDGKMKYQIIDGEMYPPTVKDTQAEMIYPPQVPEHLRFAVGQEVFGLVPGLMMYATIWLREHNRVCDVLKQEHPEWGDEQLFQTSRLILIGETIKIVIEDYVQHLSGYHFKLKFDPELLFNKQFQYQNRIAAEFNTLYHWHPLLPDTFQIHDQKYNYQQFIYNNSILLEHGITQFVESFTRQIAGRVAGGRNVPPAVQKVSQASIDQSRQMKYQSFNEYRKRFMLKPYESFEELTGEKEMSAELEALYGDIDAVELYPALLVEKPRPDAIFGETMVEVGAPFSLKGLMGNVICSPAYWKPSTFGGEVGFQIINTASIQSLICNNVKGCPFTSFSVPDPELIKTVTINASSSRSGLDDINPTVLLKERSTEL
Test: Human COX-2 inhibitor screening assay kit (Cayman)
Format: biochemical
Details: mean ± standard deviation of three replicates; read-out: COX-2 Inhibition IC50
Method: COX-2 enzyme and tested compounds at various concentrations were prepared in the reaction buffer (0.1 M Tris-HCl, pH 8.0, containing 5 mM EDTA and 2 mM phenol) containing heme. […] The quenched reactions were incubated at room temperature for 5 min to produce prostaglandin F2α. Dilutions were made with the ELISA buffer and measured by using a PGE2 ELISA kit according to the manufacturer’s instruction.

Which IC50 does the source give for Oc1cc(O)cc(/C=C/c2ccc(O)cc2O)c1 [Compound 1, trans-2,3′,4,5′-tetrahydroxystilbene] here?
The IC50 was 14.5 ± 2.04 µM.

With COc1cc(C=Cc2ccc(OC)cc2OC)cc(OC)c1 [Compound 2, 2,3′,4,5′-tetramethoxystilbene] as the compound, how does the IC50 read?
Its IC50 is 25 ± 2.34 µM.

With CC(=O)Oc1cc(C=Cc2ccc(OC(C)=O)cc2OC(C)=O)cc(OC(C)=O)c1 [Compound 3, 2,3′,4,5′-tetraacetoxystilbene] as the compound, how does the IC50 read?
The IC50 was 23 ± 2.02 µM.

For Oc1cc(O)cc(CCc2ccc(O)cc2O)c1 [Compound 4, 2,3′,4,5′-tetrahydroxybibenzyl], which IC50 is on record?
Its IC50 is 11.5 ± 1.54 µM.

Which IC50 does the source give for COc1cc(CCc2ccc(OC)cc2OC)cc(OC)c1 [Compound 5, 2,3′,4,5′-tetramethoxybibenzyl] here?
Its IC50 is 18.1 ± 2.07 µM.

For CC(=O)Oc1cc(CCc2ccc(OC(C)=O)cc2OC(C)=O)cc(OC(C)=O)c1 [Compound 6, 2,3′,4,5′-tetraacetoxybibenzyl], which IC50 is on record?
The IC50 was 19 ± 2.01 µM.

System: not listed separately
Test: in vitro
Format: cell-based, human
Details: human
Method: (§1) The effect of oxyresveratrol and its derivatives on the viability of normal human fibroblasts (MRC-5 cells) were determined by MTT assay. MRC-5 cells were diluted to 2 × 10^5 cells/mL with a complete medium. The cells (100 µL) were seeded in the wells of the sterile 96-well cell culture plate. After incubation at 37 °C in CO2 for 24 h, the cells were treated with different concentrations of sample compounds (100 µL) and doxorubicin as a positive control (100 µL). After incubation for 48 h, MTT solution (20 µL of 5 mg/mL) was added to each well and incubated for 3 h. After that, the complete medium was removed. Then, the cells were lysed with DMSO (100 µL). The yellow MTT dye was reduced by succinic dehydrogenase in the mitochondria of viable cells to purple formazan crystals. After that, absorbance (OD) was measured by a microplate reader at 570 nm. The percentage of cytotoxicity was determined with Equation (1) below. (1) Cell viability(%)=OD of treated cells/OD of control cells×100^

With Oc1cc(O)cc(/C=C/c2ccc(O)cc2O)c1 [Compound 1, trans-2,3′,4,5′-tetrahydroxystilbene] as the compound, how does the CC50 at 48 h read?
Its CC50 at 48 h is 57.5 ± 2.34 µM.

With COc1cc(C=Cc2ccc(OC)cc2OC)cc(OC)c1 [Compound 2, 2,3′,4,5′-tetramethoxystilbene] as the compound, how does the CC50 at 48 h read?
The CC50 at 48 h was 118 ± 2.69 µM.

With CC(=O)Oc1cc(C=Cc2ccc(OC(C)=O)cc2OC(C)=O)cc(OC(C)=O)c1 [Compound 3, 2,3′,4,5′-tetraacetoxystilbene] as the compound, how does the CC50 at 48 h read?
Its CC50 at 48 h is 77.7 ± 3.07 µM.

Which CC50 at 48 h does the source give for Oc1cc(O)cc(CCc2ccc(O)cc2O)c1 [Compound 4, 2,3′,4,5′-tetrahydroxybibenzyl] here?
The CC50 at 48 h was 106 ± 3.86 µM.

With COc1cc(CCc2ccc(OC)cc2OC)cc(OC)c1 [Compound 5, 2,3′,4,5′-tetramethoxybibenzyl] as the compound, how does the CC50 at 48 h read?
Its CC50 at 48 h is 130 ± 3.04 µM.

With CC(=O)Oc1cc(CCc2ccc(OC(C)=O)cc2OC(C)=O)cc(OC(C)=O)c1 [Compound 6, 2,3′,4,5′-tetraacetoxybibenzyl] as the compound, how does the CC50 at 48 h read?
Its CC50 at 48 h is 121 ± 2.37 µM.

With COc1cc(OC)cc(C(F)C(OC)c2ccc(OC)cc2OC)c1 (stereo not drawn) [Compound 8] as the compound, how does the CC50 at 48 h read?
Its CC50 at 48 h is 53.04 ± 0.22 µM.

For CC(=O)Oc1cc(OC(C)=O)cc(C(F)C(F)c2ccc(OC(C)=O)cc2OC(C)=O)c1 (stereo not drawn) [Compound 9], which CC50 at 48 h is on record?
The CC50 at 48 h was 11.7 ± 1.35 µM.

For COc1cccc2c1C(=O)c1c(O)c3c(c(O)c1C2=O)C[C@@](O)(C(=O)CO)C[C@@H]3O[C@H]1C[C@H](N)[C@H](O)[C@H](C)O1 [doxorubicin, reference compound], which CC50 at 48 h is on record?
The CC50 at 48 h was over 100 µM.

System: MRC-5 cells
Test: in vitro
Format: cell-based, human
Details: not given
Method: as §1

Which “cytotoxicity to normal cell lines (in words)” value does the source give for Oc1cc(O)cc(CCc2ccc(O)cc2O)c1 [Compound 4, 2,3′,4,5′-tetrahydroxybibenzyl] here?
Its value is “very low cytotoxicity”.

System: not given
Test: not given
Details: not given

Which melting point does the source give for COc1cc(CCc2ccc(OC)cc2OC)cc(OC)c1 [Compound 5, 2,3′,4,5′-tetramethoxybibenzyl] here?
The melting point was 44.7 to 46.8 °C.

Which melting point does the source give for CC(=O)Oc1cc(CCc2ccc(OC(C)=O)cc2OC(C)=O)cc(OC(C)=O)c1 [Compound 6, 2,3′,4,5′-tetraacetoxybibenzyl] here?
The melting point was 72.3 to 73.3 °C.
